ChEMBL document CHEMBL1137575, “Target specific virtual screening: optimization of an estrogen receptor screening platform” (J Med Chem, 2007)
The source made the active and inactive calls. No cut-off for these calls is given here.

Experiments:
MCF7 [1] = experiment: Cytotoxicity against MCF7 cells after 72 hrs by LDH assay; format: functional, cell-based; conditions: Homo sapiens
Homo sapiens = organism: Homo sapiens; experiment: Selectivity for ERalpha over ERbeta
Estrogen receptor beta = Estrogen receptor beta (Homo sapiens, UniProt Q92731); experiment: Displacement of fluoromone from human recombinant ERbeta by fluorescence polarization assay
Estrogen receptor = biological target: T1, Estrogen receptor (Homo sapiens, UniProt P03372); experiment: Displacement of fluoromone from human recombinant ERalpha by fluorescence polarization assay
T1 sequence (P03372 whole entry): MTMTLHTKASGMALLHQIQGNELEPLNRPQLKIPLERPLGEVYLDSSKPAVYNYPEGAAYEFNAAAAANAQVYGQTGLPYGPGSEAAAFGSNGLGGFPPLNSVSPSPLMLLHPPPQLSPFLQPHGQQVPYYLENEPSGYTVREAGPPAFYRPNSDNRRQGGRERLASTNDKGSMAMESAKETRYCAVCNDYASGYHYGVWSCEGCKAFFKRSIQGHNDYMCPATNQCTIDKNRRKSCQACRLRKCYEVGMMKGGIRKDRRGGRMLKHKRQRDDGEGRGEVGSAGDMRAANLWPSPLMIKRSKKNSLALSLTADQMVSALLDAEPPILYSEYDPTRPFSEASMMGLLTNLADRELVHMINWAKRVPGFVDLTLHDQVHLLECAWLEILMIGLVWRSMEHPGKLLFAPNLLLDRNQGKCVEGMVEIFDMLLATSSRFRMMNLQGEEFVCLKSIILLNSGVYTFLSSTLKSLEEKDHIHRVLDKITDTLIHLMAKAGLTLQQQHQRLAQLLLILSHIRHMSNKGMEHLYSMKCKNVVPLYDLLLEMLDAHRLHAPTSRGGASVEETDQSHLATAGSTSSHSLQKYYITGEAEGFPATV

MCF7 [2] = experiment: Antiproliferative activity against MCF7 cells after 72 hrs by MTT assay; format: functional, Homo sapiens

Chain of Estrogen receptor beta (Q92731 whole entry): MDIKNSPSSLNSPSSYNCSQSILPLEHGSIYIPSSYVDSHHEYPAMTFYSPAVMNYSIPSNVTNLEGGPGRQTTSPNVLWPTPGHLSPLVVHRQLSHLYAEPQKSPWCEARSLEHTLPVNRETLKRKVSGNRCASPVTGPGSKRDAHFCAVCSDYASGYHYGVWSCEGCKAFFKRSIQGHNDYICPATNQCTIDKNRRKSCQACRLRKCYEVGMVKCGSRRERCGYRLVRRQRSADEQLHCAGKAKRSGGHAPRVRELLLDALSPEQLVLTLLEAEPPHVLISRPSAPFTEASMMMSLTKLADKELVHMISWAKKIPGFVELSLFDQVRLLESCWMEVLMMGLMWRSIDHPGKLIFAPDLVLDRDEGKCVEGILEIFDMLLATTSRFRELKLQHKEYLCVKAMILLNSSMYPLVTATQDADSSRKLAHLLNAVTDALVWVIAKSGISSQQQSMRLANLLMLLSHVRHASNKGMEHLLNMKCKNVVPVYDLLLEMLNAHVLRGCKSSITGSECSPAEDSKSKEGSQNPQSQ

| Ratio IC50 (Homo sapiens) | IC50 (Estrogen receptor beta) [nM] | IC50 (Estrogen receptor) [nM] | Compound | Activity (MCF7 [1]) | Activity (MCF7 [2]) [µM] |
| --- | --- | --- | --- | --- | --- |
| 17 | 915 | 56 | COC(=O)C1=C(N)Oc2cc(O)ccc2C1c1ccc(OCc2ccc(C)cc2)cc1 (stereo unspecified) | Active | 7 |
|  |  |  | CC/C(=C(\c1ccccc1)c1ccc(OCCN(C)C)cc1)c1ccccc1 [TAMOXIFEN] |  | 4.6 |
| 4.4 | 6200 | 1100 | COc1cc(C2Nc3ccccc3C(=O)N2Cc2ccccc2)ccc1O (stereo unspecified) | Active | 15 |

| Compound | Ratio IC50 (Homo sapiens) | IC50 (Estrogen receptor beta) [nM] | IC50 (Estrogen receptor) [nM] | Activity (MCF7 [1]) | Activity (MCF7 [2]) [µM] |
| --- | --- | --- | --- | --- | --- |
| COC(=O)C1=C(N)Oc2cc(O)ccc2C1c1ccc(OCc2ccccc2F)cc1 (stereo unspecified) | 13.7 | 780 | 53 | Active | 11.4 |
